We go through two compounds from patent publication US20260137745A1, “QUERCETAGETIN ENRICHED MARIGOLD EXTRACTS, COMPOSITIONS, METHODS OF PREPARATION AND USE THEREOF” (AVT NATURAL PRODUCTS LTD., priority 2022, published 2026).

One assay is described as follows: DPPH Antioxidant Assay. The class given is biochemical. As to conditions: lower is better. Here is the method:
DPPH assay is considered a valid accurate and easy method to evaluate radical scavenging activity of antioxidants. DPPH [1,1-diphenyl-2-picryl hydrazyl] is a stable free radical with purple color. Antioxidants reduce DPPH to 1,1-diphenyl-2-picryl hydrazine, a color less compound which is measured at an absorbance of […]. This is an accepted mechanism for screening the antioxidant activity of plant extracts in a concentration dependent manner. Accordingly, the DPPH Antioxidant Assay was conducted as per known protocols for the compositions comprising QG40, and compositions comprising QG90, and Quercetin.
Background: Loss of DPPH colour is used to gauge radical scavenging.

The nature of assay [1]: Oxygen Radical Absorbance Capacity (ORAC) assay. The following applies: higher is better. The class given is biochemical. Here is the method:
The Oxygen Radical Absorbance Capacity (ORAC) assay is a method that measures the antioxidant capacity of a substance. The ORAC assay measures a fluorescent signal from a probe that is quenched in the presence of Reactive Oxygen Species (ROS). […] In accordance with this protocol, ORAC assay was evaluated (using known protocols) for the composition comprising QG40 extract; the composition comprising QG90 extract and compared the same with composition comprising quercetin. […] Higher the ORAC value, means better performance by the composition.

Assay [2] relates to Keratinocyte (HACAT) cells. The assay can be described thus: Cellular ROS Assay. The class given is cell-based. As to conditions: Homo sapiens, DCF-DA probe, flow cytometry, read-out: ROS inhibition IC50. Here is the method: The Cellular ROS Assay is a cell-based assay designed for measuring Reactive Oxygen Species activity within a cell using the cell-permeable fluorogenic probe 2′. 7′-Di chloro dihydro fluorescein diacetate (DCF-DA). […] ROS induces the modification of carboxy-H2DCFDA that fluoresces green as detected by flow cytometry. ROS inhibition was evaluated for the composition with QG40 extract; the composition with QG90 extract and composition with quercetin.
(In general: Flow cytometry measures light scatter and fluorescence of single cells or particles in a stream.)

The subject of assay [3] is Human Adult Epidermal Melanocytes (HAEM). The assay can be described thus: Cellular melanin inhibition assay. The class given is cell-based. As to conditions: Melanocyte, read-out: melanin inhibition IC50. Here is the method: Cellular melanin inhibition assay is a cell-based assay designed for measuring Melanin inhibition in Human Adult Epidermal Melanocytes (HAEM). Darkly pigmented melanocytes were treated with test samples and incubated for 72 hrs. Post incubation, melanin was extracted and measured at an absorbance of 490 nm to evaluate the non-cytotoxic concentration of test sample (i.e. composition with QG40 extract; the composition with QG90 extract and composition with quercetin) for melanin inhibition.

Values after ≈ are worked out from the molar mass of the structure shown. Read-outs that look alike come from different tables or passages of the source.

A word on the IC50: it is the midpoint of a concentration-inhibition curve. In the case of `O.O.O=c1c(O)c(-c2ccc(O)c(O)c2)oc2cc(O)cc(O)c12` [Composition having Quercetin, Quercetin dihydrate], the “DPPH Scavenging activity (IC50)” value in “DPPH Antioxidant Assay” worked out at 6.27 µg/mL. Moreover, the ORAC value in assay [1] is 18.69 m1\4 TE/g. Moreover, the half-maximal inhibitory concentration (IC50) is 16.5 µg/mL in assay [2] and 9.62 µg/mL in assay [3] (72 h).
For `O=c1cc(CO)occ1O` [Kojic acid], in assay [3] (darkly pigmented melanocytes, 72 hrs incubation), the 50% inhibitory concentration (IC50) came out at 25 µg/mL (≈ 176 µM).
